Source: a melting point compilation (Tetko et al.; mined from patent text by program, amines drawn as free bases though some values may be those of a salt)

| Structure (SMILES) | melting point [°C] |
| --- | --- |
| c1ccc(-c2ncc(N3CCCC3CCCCOC3CCCCO3)nc2-c2ccccc2)cc1 (centres undefined) | 94 to 96 |
| COc1ccc(S(=O)(=O)N2C(=O)C(N)(c3cc(OC)ccc3OC)c3cc(Cl)ccc32)c(OC)c1 (centres undefined) | 191 |
| NS(=O)(=O)c1cc2cc[nH]c(=O)c2s1 | 295 to 297 |
| O=S(=O)(N=CN1CCOCC1)c1cc(Br)cc(Br)c1 | 195 to 197 |
| COc1ccc(S(=O)(=O)N(CC(N)=O)c2ccc(Cl)cc2C(O)c2ccccc2C(F)(F)F)cc1OC (centres undefined) | 129 |
| O=[N+]([O-])c1ccccc1-c1nc2ccccc2n1CC(O)CO (centres undefined) | 182 to 183 |
| COC(=O)c1ccc(Oc2ccc(N3CCN(c4ccncc4)CC3)cc2)nc1 | 143 to 144 |
| O=CN(c1cc(Cl)cc(Cl)c1)c1cc(S(=O)(=O)NC(c2ccccc2)c2ccccc2)ccc1Cl | 196 to 198 |
| O=C(c1ccc(F)cc1)N1CCC[C@H](c2noc([C@@H](O)c3ccccc3)n2)C1 | 168 to 172 |
| O=C(O)c1c[nH]c(=S)n1C1CCc2cc(F)cc(F)c2C1 (centres undefined) | 207 to 208 |
| C=CCOC(=O)N[C@H]1CC(=O)O[C@H]1OCc1ccccc1 | 108 to 110 |
| CS(=O)CC(=NC1CCCCC1)c1cc2ccccc2cc1O (centres undefined) | 132 to 136 |
| CC(CS(=O)(=O)c1ccc(Oc2ccc(Cl)cc2)cc1)N(O)C=O (centres undefined) | 144 to 145 |
| COc1cc(Oc2cc(C(F)(F)F)nn2C)nc(Oc2cc(C(F)(F)F)nn2C)c1 | 107 |
| O=C1c2ccccc2C(=O)N1OCCOCc1ccccc1F | 62 to 64 |
| O=C1N(Cc2ccccn2)c2cccc(-c3cncnc3)c2C12COc1cc3c(cc12)CCO3 (centres undefined) | > 200 |
| O=[N+]([O-])c1cc(Br)ccc1-c1ccc(F)cc1F | 52 to 53 |
| COc1cc(OC)c2nccc(O)c2c1 | 221 to 224 |
| COc1ccc2c(c1)C(=S)N(C)CC(CCCl)O2 (centres undefined) | 98 to 100 |

Further lines, results first:

| melting point [°C] | Structure (SMILES) |
| --- | --- |
| 115 to 116 | COC(=O)CCc1nc(-c2ccc(O)cc2)c(-c2ccccc2)o1 |
| 176 to 178 | CCCc1nc(C(=O)C(C)(C)C)c(C#N)[nH]1 |
| 211 to 215 | Oc1cc(C(F)(F)F)[nH]n1 |
| 177 | Cc1cccc(NC(=O)NCC(=O)N(CC(=O)OC(C)(C)C)c2ccccc2-c2ccccc2)c1 |
| 130 | CC(C)Oc1cc(C(C)C)c2c(c1)S(=O)(=O)N(c1c(F)c(F)nc(F)c1F)C2=O |
| 98 to 100 | CC(C)C[C@H](N)C(=O)N[C@@H](CC1CCCCC1)[C@@H](O)c1ccccn1 |
| > 250 | N#Cc1cccc(C2C3=C(CCS3)NC3=C2C(=O)CCC3)c1 (single isomer, unassigned; (+)) |
| 164 to 166 | Cc1cc2nc(C)c(=O)n(C)c2cc1C |
| 213 to 214 | Cc1oc(-c2ccccc2)nc1CCOc1ccc(C=C2SC(=O)NC2=O)cc1 |
| 82 to 83.9 | O=C(C[C@@H](CCCC1CCCCC1)c1nc(CNC2CCC2)no1)NO |
| 368 | CC(C)c1ccccc1-n1c(=O)[nH]c2c(C(N)=O)nc(-c3ccc(-c4nc[nH]n4)cc3)nc21 |
| 57 to 58 | CCCc1c(OCCCCCCCCCCC(=O)O)ccc(C(C)=O)c1O |
| 194 to 195 | CCc1noc(C)c1-c1[nH]c2ccccc2c1CC(N)=O |
| 133 | Cc1cccc(C)c1N(CCl)C(=O)c1ccccc1 |
| 254 | Cc1cc(-c2cnn3c(C(F)(F)F)cc(-c4ccc(Cl)c(C)c4)nc23)cc(C)n1 |
| 56 to 57 | CCOC(=O)C(Cc1ccc(C(F)(F)F)c(F)c1)C(=O)c1ccc(F)cc1 (centres undefined) |
| 44 to 47 | CCCOc1ccc(C(=O)OC)cc1C(C)=O |
| 144 to 146 | COCCNC(=O)COc1ccn2nc(-c3ccccc3)c(-c3ccc(=O)n(C(C)C)n3)c2c1 |
| 154 to 156 | COCCc1c[nH]c(-c2ccc(OCc3ccccc3)cc2)n1 |
| 74 to 75 | COc1cc(NC(C)=O)c(Cl)cc1C(=O)CCCCN1CCCCC1 |
